{"source": "paper PMC6523531", "about": "“Mechanistic Studies on the Absorption-Enhancing Effects of Gemini Surfactant on the Intestinal Absorption of Poorly Absorbed Hydrophilic Drugs in Rats” (Pharmaceutics, 2019)", "key": {"Caco-2 cell monolayers": {"tested_on": "Caco-2 cell monolayers", "experiment": "Transepithelial electrical resistance (TEER) of Caco-2 cell monolayers", "type": "cell-based, Human", "protocol": "Caco-2 cells (passage 45) were cultured in 175-cm^2 culture flask (Thermo Fisher Scientific™, Waltham, MA, USA). The culture medium consisted of DMEM containing 10% FBS, 0.1 mM MEM–NEAA, 2 mM glutamine, 100 U/mL penicillin, and 100 µg/mL streptomycin [30]. Cells were cultured in a humidified atmosphere of 5% CO2 at 37 °C. The culture medium was changed every two days. When the cultured Caco-2 cells became sub-confluent, they were seeded onto 12-mm Transwell® with 0.4-µm pore polycarbonate membrane inserts (Corning Inc., New York, NY, USA) at a density of 1 × 10^5 cells/insert. The transepithelial transport studies were performed when the transepithelial electrical resistance (TEER) values were more than 500 Ω·cm^2 (i.e., after 21 days). Briefly, after removing the incubation medium by aspiration, the apical and basal sides were washed thrice by Hank’s Balanced Salt (HBSS) solution (pH 7.4). The cells were incubated in HBSS (pH 6.0) for the apical side and HBSS (pH 7.4) for the basal side for 20 min at 37 °C. HBSS supplemented with 1 mg/mL glucose was used in all cell culture experiments. After removing the washing solution by aspiration, 500 µL of 10 µM CF in a HBSS (pH 6.0) solution with or without various concentrations (0.001% v/v, 0.01% v/v, 0.025% v/v, 0.05% v/v, and 0.1% v/v) of SLG-30, 0.1% (w/v) and 1% (w/v) NaGC or 0.05% (w/v) sodium laurate were added to the apical side at zero time, whereas precisely 1500 µL of HBSS (pH 7.4) was added to the basal side at 37 °C. The cells were kept at 37 °C and 5% CO2 and were continuously agitated on a shaker during the transport experiments.\nThe TEER values were measured by Millicell® (ERS-2 Volt-Ohm Meter, Billerica, MA, USA) at the predetermined times up to 24 h, and the initial values were considered as 100%. The samples from the basal side were withdrawn at predetermined time points up to 24 h. The samples were replaced with an equal volume of HBSS (pH 7.4). CF was determined as previously mentioned. The apparent permeability coefficients Papp (cm/s) for the transported CF was determined by the following equation: Papp=dXR/dt×1/A×1/C0 where Papp is the apparent permeability coefficient in centimeters per second, XR is the amount of CF in moles in the receptor side, dXR/dt is the flux across the monolayer, A is the diffusion area (i.e., in square centimeters), and C0 is the initial concentration of CF in the donor side in moles per milliliter."}, "Caco-2 cells": {"tested_on": "Caco-2 cells", "experiment": "Caco-2 cell damage by LDH release", "type": "cell-based, Human", "protocol": "After the transport studies were over, the solution on the apical side of each well was collected. Cell injury caused by SLG-30 was determined by tracking the LDH release. The cell precipitate and the monolayers left on the filters were solubilized with 1% (v/v) Triton X-100. The solutions from apical sides and the lysates were centrifuged for 7 min at 200× g at a temperature of 4 °C. The activities of LDH in the supernatant were measured. (LDHrelease) stands for the activity of the LDH released into the apical side in the existence of SLG-30. (LDHcell) stands for the activity of the LDH obtained from the cell lysate. LDHreleased% was calculated by the following equation:LDHrelease% = LDHrelease × 100/(LDHrelease + LDHcells)"}, "claudin-1": {"tested_on": "claudin-1", "experiment": "Western blotting of claudin-1 in rat small intestine after in situ treatment", "type": "in vivo", "conditions": "treatment with 0.5% (v/v) SLG-30 for 1 h, vs control", "protocol": "(§1) Western blotting was performed by the method described previously with slight modifications. Three male Wistar rats weighing 250 g were prepared to perform an in situ closed-loop method on the small intestine, as mentioned above. A control study, a treatment study, and a pretreatment study were conducted on the first, second, and third rat, respectively. For the control study, only PBS solution (pH 7.4) was administered into the small intestine, and then, the rat was sacrificed, while for the treatment study, SLG-30 was administered for 1 h, and then, the rat was sacrificed without washing the SLG-30 out. The pretreatment study was performed by administrating SLG-30 for 1 h then washing it out with PBS solution (pH 7.4), followed by sacrificing the rat after 4 h. The small intestine (60 cm) of three rats was taken and treated, as mentioned above, for extracting the BBMVs. […]\n(§2) The expression levels of proteins from the claudin family, in the homogenate of the small intestine membrane, were evaluated by western blotting. […] The signals were visualized by luminescence imaging (Fujifilm Luminescent Image Analyzer LAS4000 System, Tokyo, Japan). The intensity of each signal was corrected using the values obtained from the β-actin bands, and the relative protein intensity was expressed as the fold change compared to the relative protein intensity in the normal group."}, "claudin-4": {"tested_on": "claudin-4", "experiment": "Western blotting of claudin-4 in rat small intestine after in situ treatment", "type": "in vivo", "protocol": "as §1, §2"}}, "data": [{"smiles": "CCCCCCCCCCCC(=O)NC(CCC(=O)NCCCCC(NC(=O)CCC(NC(=O)CCCCCCCCCCC)C(=O)O)C(=O)O)C(=O)O", "note": "(centres unmarked) [SLG-30, sodium dilauramidoglutamide lysine]", "values": [{"measurement": "TEER values", "setting": "Caco-2 cell monolayers; SLG-30 at all concentrations 0.001-0.1% (v/v), first hour", "result": "significant decrease"}, {"measurement": "TEER recovery", "setting": "Caco-2 cell monolayers; higher concentrations of SLG-30, without removing SLG-30, up to 24 h", "result": "did not recover to the baseline"}, {"measurement": "TEER recovery", "setting": "Caco-2 cell monolayers; lower concentrations of SLG-30, without removing SLG-30, up to 24 h", "result": "started to recover"}, {"measurement": "activity of LDH released from Caco-2 cells vs control", "setting": "Caco-2 cells; SLG-30 0.001-0.1% (v/v), after the transport studies, n = 6", "result": "did not increase"}, {"measurement": "Caco-2 cell injury", "setting": "Caco-2 cells; SLG-30 at concentrations used in in vivo studies", "result": "the cells were detached and severely injured"}, {"measurement": "decrease of the intensity of the claudin-1 band", "setting": "claudin-1", "result": 57, "unit": "%"}, {"measurement": "claudin-4 expression level less than the control", "setting": "claudin-4; pretreatment study: 0.5% (v/v) SLG-30 for 1 h, washed out, proteins extracted after 4 h", "result": "~45", "unit": "%"}, {"measurement": "decrease of the intensity of the claudin-4 band", "setting": "claudin-4; treatment with 0.5% (v/v) SLG-30 for 1 h, rat small intestine, vs control", "result": 64, "unit": "%"}]}]}
